Assay results taken from patent publication US20070049593A1 (priority 2004, published 2007).
Structures can show the parent of a compound that is named as a salt.

Molecular target: T1, HCV polymerase (Hepatitis C virus genotype 1b, UniProt P26663)
T1 construct: a region encoding NS5B (J Virol 1991 March, 65(3), 1105-13, 544 amino acids after deletion of 47 amino acids on the C-terminal); 6xHis (C); made in house; host or cells: Escherichia coli
Assay: biochemical
Set-up: species or system HCV BK strain
Details: not given
How it was run: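 His-tagged NS5B (BK strain, 47-aa C-terminal deletion, E. coli-expressed) at 0.5 μg/ml copied 5 μg/ml run-off RNA bearing the HCV 3′ UTR with 2 μM UTP plus [3H]UTP, 50 μM ATP/GTP, in pH 7.5 Tris with 5 mM MgCl2, 25 °C, 90 min. TCA-precipitated RNA was counted and IC50 calculated.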

T1 sequence (P26663 2420-2963): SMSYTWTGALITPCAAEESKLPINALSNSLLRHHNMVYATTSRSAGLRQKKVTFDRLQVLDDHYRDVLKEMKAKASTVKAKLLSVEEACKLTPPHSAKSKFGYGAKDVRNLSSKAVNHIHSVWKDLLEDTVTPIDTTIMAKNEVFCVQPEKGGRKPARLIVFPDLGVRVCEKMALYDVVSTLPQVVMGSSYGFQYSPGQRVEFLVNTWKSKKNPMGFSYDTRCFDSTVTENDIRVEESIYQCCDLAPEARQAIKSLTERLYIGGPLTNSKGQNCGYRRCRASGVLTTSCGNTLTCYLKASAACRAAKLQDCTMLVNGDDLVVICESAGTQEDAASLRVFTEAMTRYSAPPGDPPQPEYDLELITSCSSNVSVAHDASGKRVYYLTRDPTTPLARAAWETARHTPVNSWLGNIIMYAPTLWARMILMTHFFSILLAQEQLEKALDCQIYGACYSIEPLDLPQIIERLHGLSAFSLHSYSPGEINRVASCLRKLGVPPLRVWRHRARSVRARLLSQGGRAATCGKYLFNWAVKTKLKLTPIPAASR

How did the IC50 turn out when `CCc1ccc2c(c1)N(CCC1CCCN(C(C)C)C1)CCn1c-2c(C2CCCCC2)c2ccc(C(=O)O)cc21` (centres unmarked) [Example 1-369, 13-cyclohexyl-3-ethyl-5-[2-(1-isopropylpiperidin-3-yl)ethyl]-6,7-dihydro-5H-benzo[5,6][1,4]diazepino[7,1-a]indole-10-carboxylic acid] was run?
The IC50 was < 100 nM.

How did the IC50 turn out when `CCOc1ccc2c(c1)N(CCN1CCCC(COC)C1)CCn1c-2c(C2CCCCC2)c2ccc(C(=O)O)cc21` (centres unmarked) [Example 1-370, 13-cyclohexyl-3-ethoxy-5-[2-(3-methoxymethylpiperidin-1-yl)ethyl]-6,7-dihydro-5H-benzo[5,6][1,4]diazepino[7,1-a]indole-10-carboxylic acid] was run?
The IC50 was < 100 nM.

How did the IC50 turn out when `CC(C)N1CCCC(OCCN2CCn3c(c(C4CCCCC4)c4ccc(C(=O)O)cc43)-c3ccc(Cl)cc32)C1` (centres unmarked) [Example 1-371, 3-chloro-13-cyclohexyl-5-[2-(1-isopropylpiperidin-3-yloxy)ethyl]-6,7-dihydro-5H-benzo[5,6][1,4]diazepino[7,1-a]indole-10-carboxylic acid] was run?
Its IC50 is < 100 nM.

Which IC50 does the source give for `CCC1CCCN(CCCN2CCn3c(c(C4CCCCC4)c4ccc(C(=O)O)cc43)-c3ccc(Cl)cc32)C1` (centres unmarked) [Example 1-372, 3-chloro-13-cyclohexyl-5-[3-(3-ethylpiperidin-1-yl)propyl]-6,7-dihydro-5H-benzo[5,6][1,4]diazepino[7,1-a]indole-10-carboxylic acid dihydrochloride] here?
Its IC50 is < 100 nM.

With `Cc1cc(COc2ccc3c(c2)N(CCN(C)C)CCn2c-3c(C3CCCCC3)c3ccc(C(=O)O)cc32)no1` [Example 1-374, 13-cyclohexyl-5-(2-dimethylaminoethyl)-3-(5-methylisoxazol-3-ylmethoxy)-6,7-dihydro-5H-benzo[5,6][1,4]diazepino[7,1-a]indole-10-carboxylic acid dihydrochloride] as the compound, how does the IC50 read?
Its IC50 is < 100 nM.

Which IC50 does the source give for `CC(C)COc1ccc2c(c1)N(CCN1CCCC(C)C1)CCn1c-2c(C2CCCCC2)c2ccc(C(=O)O)cc21` (centres unmarked) [Example 1-375, 13-cyclohexyl-3-isobutoxy-5-[2-(3-methylpiperidin-1-yl)ethyl]-6,7-dihydro-5H-benzo[5,6][1,4]diazepino[7,1-a]indole-10-carboxylic acid dihydrochloride] here?
The IC50 was < 100 nM.

With `CCC1CCCN(CCN2CCn3c(c(C4CCCCC4)c4ccc(C(=O)O)cc43)-c3ccc(OCC(C)C)cc32)C1` (centres unmarked) [Example 1-376, 13-cyclohexyl-5-[2-(3-ethylpiperidin-1-yl)ethyl]-3-isobutoxy-6,7-dihydro-5H-benzo[5,6][1,4]diazepino[7,1-a]indole-10-carboxylic acid dihydrochloride] as the compound, how does the IC50 read?
Its IC50 is < 100 nM.

For `COCC1CCCN(CCN2CCn3c(c(C4CCCCC4)c4ccc(C(=O)O)cc43)-c3ccc(OCC(C)C)cc32)C1` (centres unmarked) [Example 1-377, 13-cyclohexyl-3-isobutoxy-5-[2-(3-methoxymethylpiperidin-1-yl)ethyl]-6,7-dihydro-5H-benzo[5,6][1,4]diazepino[7,1-a]indole-10-carboxylic acid dihydrochloride], which IC50 is on record?
Its IC50 is < 100 nM.

For `CCN(CC)CCCN1CCn2c(c(C3CCCCC3)c3ccc(C(=O)O)cc32)-c2ccc(C)cc21` [Example 1-378, 13-cyclohexyl-5-(3-diethylaminopropyl)-3-methyl-6,7-dihydro-5H-benzo[5,6][1,4]diazepino[7,1-a]indole-10-carboxylic acid dihydrochloride], which IC50 is on record?
Its IC50 is < 100 nM.

`O=C(O)c1ccc2c(C3CCCCC3)c3n(c2c1)CCN(CCC1CCCN(C2CCCCC2)C1)c1cc(Cl)ccc1-3` (centres unmarked) [Example 1-379, 3-chloro-13-cyclohexyl-5-[2-(1-cyclohexylpiperidin-3-yl)ethyl]-6,7-dihydro-5H-benzo[5,6][1,4]diazepino[7,1-a]indole-10-carboxylic acid dihydrochloride] was tested. Which IC50 did it give?
The IC50 was < 100 nM.

For `Cc1ccc2c(c1)N(CCC1CCCN(C3CCCC3)C1)CCn1c-2c(C2CCCCC2)c2ccc(C(=O)O)cc21` (centres unmarked) [Example 1-380, 13-cyclohexyl-5-[2-(1-cyclopentylpiperidin-3-yl)ethyl]-3-methyl-6,7-dihydro-5H-benzo[5,6][1,4]diazepino[7,1-a]indole-10-carboxylic acid dihydrochloride], which IC50 is on record?
The IC50 was < 100 nM.

With `CC(C)c1ccc2c(c1)N(CCC1CCCN(C(C)C)C1)CCn1c-2c(C2CCCCC2)c2ccc(C(=O)O)cc21` (centres unmarked) [Example 1-381, 13-cyclohexyl-3-isopropyl-5-[2-(1-isopropylpiperidin-3-yl)ethyl]-6,7-dihydro-5H-benzo[5,6][1,4]diazepino[7,1-a]indole-10-carboxylic acid dihydrochloride] as the compound, how does the IC50 read?
The IC50 was < 100 nM.

For `CCC1CCN(CCN2CCn3c(c(C4CCCCC4)c4ccc(C(=O)O)cc43)-c3ccccc32)C1` (centres unmarked) [Example 1-382, 13-cyclohexyl-5-[2-(3-ethylpyrrolidin-1-yl)ethyl]-6,7-dihydro-5H-benzo[5,6][1,4]diazepino[7,1-a]indole-10-carboxylic acid dihydrochloride], which IC50 is on record?
Its IC50 is < 100 nM.

Which IC50 does the source give for `CCC1CCN(CCN2CCn3c(c(C4CCCCC4)c4ccc(C(=O)O)cc43)-c3ccc(Cl)cc32)C1` (centres unmarked) [Example 1-383, 3-chloro-13-cyclohexyl-5-[2-(3-ethylpyrrolidin-1-yl)ethyl]-6,7-dihydro-5H-benzo[5,6][1,4]diazepino[7,1-a]indole-10-carboxylic acid dihydrochloride] here?
The IC50 was < 100 nM.

For `CCC1CCN(CCN2CCn3c(c(C4CCCCC4)c4ccc(C(=O)O)cc43)-c3ccc(C)cc32)C1` (centres unmarked) [Example 1-384, 13-cyclohexyl-5-[2-(3-ethylpyrrolidin-1-yl)ethyl]-3-methyl-6,7-dihydro-5H-benzo[5,6][1,4]diazepino[7,1-a]indole-10-carboxylic acid dihydrochloride], which IC50 is on record?
Its IC50 is < 100 nM.

How did the IC50 turn out when `CC(C)COc1ccc2c(c1)N(CCC1CCCN(C(C)C)C1)CCn1c-2c(C2CCCCC2)c2ccc(C(=O)O)cc21` (centres unmarked) [Example 1-385, 13-cyclohexyl-3-isobutoxy-5-[2-(1-isopropylpiperidin-3-yl)ethyl]-6,7-dihydro-5H-benzo[5,6][1,4]diazepino[7,1-a]indole-10-carboxylic acid dihydrochloride] was run?
Its IC50 is < 100 nM.

`CCC(CC)N1CCCC(CCN2CCn3c(c(C4CCCCC4)c4ccc(C(=O)O)cc43)-c3ccc(Cl)cc32)C1` (centres unmarked) [Example 1-386, 3-chloro-13-cyclohexyl-5-{2-[1-(1-ethylpropyl)piperidin-3-yl]ethyl}-6,7-dihydro-5H-benzo[5,6][1,4]diazepino[7,1-a]indole-10-carboxylic acid dihydrochloride] was tested. Which IC50 did it give?
The IC50 was < 100 nM.

With `CCOCC1CCCN(CCN2CCn3c(c(C4CCCCC4)c4ccc(C(=O)O)cc43)-c3ccccc32)C1` (centres unmarked) [Example 1-387, 13-cyclohexyl-5-[2-(3-ethoxymethylpiperidin-1-yl)ethyl]-6,7-dihydro-5H-benzo[5,6][1,4]diazepino[7,1-a]indole-10-carboxylic acid dihydrochloride] as the compound, how does the IC50 read?
Its IC50 is < 100 nM.

Same assay, conditions: 25° C., 90 min; [5,6-3H]UTP incorporation into RNA; read-out: HCV polymerase inhibitory activity IC50

How did the IC50 turn out when `CC(C)COc1ccc2c(c1)N(CCN1CCCCC1)CCn1c-2c(C2CCCCC2)c2ccc(C(=O)O)cc21` [Example 1-373, 13-cyclohexyl-3-isobutoxy-5-[2-(piperidin-1-yl)ethyl]-6,7-dihydro-5H-benzo[5,6][1,4]diazepino[7,1-a]indole-10-carboxylic acid dihydrochloride] was run?
The IC50 was < 100 nM.

For `CCC1CCCN(CCN2CCn3c(c(C4CCCC4)c4ccc(C(=O)O)cc43)-c3ccc(Cl)cc32)C1` (centres unmarked) [Example 1-389, 3-chloro-13-cyclopentyl-5-[2-(3-ethylpiperidin-1-yl)ethyl]-6,7-dihydro-5H-benzo[5,6][1,4]diazepino[7,1-a]indole-10-carboxylic acid], which IC50 is on record?
The IC50 was < 100 nM.
